In general, IC50 refers to the concentration needed to halve the response being measured.

The target in assay [1] is T1, SMO (Homo sapiens, UniProt Q99835).
T1 construct: expressed in transfected cells; host or cells: HEK293
Kind of assay: Smoothened (SMO) binding fluorescence polarisation assay (BODIPY-cyclopamine competition). To be noted: SMO binding FP assay versus C3H10T1/2 cellular assay. The method, then:
Standard Protocol for Smoothened (SMO) Binding Fluorescence Polarisation Assay.
The assay measures the ability of the test compounds to compete with a fluorescently-labelled version of the known ligand, cyclopamine, for binding to SMO. The fluorescent tag used is BODIPY (boron dipyrromethene).
An aliquot of a membrane preparation from a SMO-over-expressing HEK293 cell line is diluted to protein concentration of 0.117 mg/ml in assay buffer (25 mM HEPES, 2 mM EDTA, 0.05% γ-globulin, 0.01% pluronic acid pH7.4, plus protease Inhibitor cocktail). 8.5 μl of the membrane suspension is added to each well of a black, low volume 384 well microtitre plate.
Test compounds are added in a seven point dilution range to the wells containing the membrane preparation. The final DMSO solvent concentration in the wells is maintained at 0.3%. 6.5 μl of a 6.9 nM BODIPY-cyclopamine solution is added to each of the wells (final assay concentration 3 nM).
The plate is sealed and stored in the dark at room temperature for 24 hours prior to measurement of the fluorescence polarisation signal on a Perkin Elmer Envision multi-label reader.
Table 4 below details the ratio of SMO binding compared to the potency in the C3H10T1/2 cellular assay. The small ratio between SMO binding and potency for vismodegib is considered to be reflective of the fact vismodegib acts mainly through inhibition of the SMO protein. The larger ratios for the compound of the invention are considered to be reflective of alternate actions outside of direct SMO inhibition.
(In general: Fluorescence polarisation rises when a labelled molecule tumbles more slowly, as on binding a larger partner.)

The subject of assay [2] is C3H10T1/2 cells. Kind of assay: C3H assay: differentiation of C3H10T1/2 cells by mSHH, measurement of alkaline phosphatase. The class given is cell-based, mouse. The note with it: Mus musculus, C3H 10T1/2; C3H10T1/2 cells stimulated with mSHH for 72 hours; alkaline phosphatase activity; read-out: IC50 Ranges.

Structures are written as SMILES. A value given as a limit tells only on which side of the number the result lay.

T1 sequence (Q99835 28-787): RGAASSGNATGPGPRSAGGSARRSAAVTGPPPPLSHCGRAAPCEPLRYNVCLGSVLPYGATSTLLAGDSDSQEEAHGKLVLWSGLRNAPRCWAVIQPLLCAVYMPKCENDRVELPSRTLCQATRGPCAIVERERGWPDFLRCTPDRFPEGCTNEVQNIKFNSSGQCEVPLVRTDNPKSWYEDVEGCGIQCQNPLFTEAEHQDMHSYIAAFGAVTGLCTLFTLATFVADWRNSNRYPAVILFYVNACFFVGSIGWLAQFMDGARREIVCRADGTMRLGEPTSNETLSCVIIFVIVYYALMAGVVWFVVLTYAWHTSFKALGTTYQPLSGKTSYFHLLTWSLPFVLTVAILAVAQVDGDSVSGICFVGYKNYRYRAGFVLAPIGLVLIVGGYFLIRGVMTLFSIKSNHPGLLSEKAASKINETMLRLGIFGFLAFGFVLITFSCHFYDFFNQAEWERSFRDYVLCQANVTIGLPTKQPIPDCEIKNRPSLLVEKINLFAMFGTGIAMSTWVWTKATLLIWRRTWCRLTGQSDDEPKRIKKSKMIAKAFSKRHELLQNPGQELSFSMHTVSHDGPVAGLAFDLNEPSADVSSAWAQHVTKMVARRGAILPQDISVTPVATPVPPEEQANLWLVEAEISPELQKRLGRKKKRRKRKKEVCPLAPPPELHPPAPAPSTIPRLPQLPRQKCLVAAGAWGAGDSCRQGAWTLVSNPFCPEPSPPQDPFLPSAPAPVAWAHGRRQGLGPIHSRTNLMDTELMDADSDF

Turning to `O=C(OC[C@H]1CCCO1)N1CC(S(=O)(=O)N2CCC(c3c[nH]c4ncccc34)CC2)C1` [Compound 162, [(2R)-oxolan-2-yl]methyl 3-[4-(1H-pyrrolo[2,3-b]pyridin-3-yl)piperidin-1-yl]sulfonylaze-tidine-1-carboxylate], in assay [1], the “Ratio of potency in SMO binding assay to potency in C3H10T1/2 cellular assay” value (“Ratio of potency in SMO binding assay” for short) amounted to 20. For the same compound, the IC50 in assay [2] lay within 10 to 100 nM.
In the case of `CC(C)(C)OC(=O)N1CC(S(=O)(=O)N2CC=C(c3c[nH]c4ncccc34)CC2)C1` [Compound 228, tert-butyl 3-[[4-(1H-pyrrolo[2,3-b]pyridin-3-yl)-3,6-dihydro-2H-pyridin-1-yl]sulfonyl] azetidine-1-carboxylate], the “Ratio of potency in SMO binding assay” value in assay [1] stood at 20. The IC50 in assay [2] is 100 to 1000 nM.
For the compound `Cc1ccc(S(=O)(=O)n2ccc3c(C4=CCN(S(=O)(=O)C5CCN(C(=O)OC(C)(C)C)CC5)CC4)ncnc32)cc1` [Compound 239, tert-butyl 4-[[4-[7-(4-methylphenyl)sulfonylpyrrolo[2,3-d]pyrimidin-4-yl]-3,6-dihydro-2H-pyridin-1-yl]sulfonyl] piperidine-1-carboxylate], the “Ratio of potency in SMO binding assay” value in assay [1] is given as above 37. In assay [2], the IC50 was in the range of 100 to 1000 nM.
On to `CC1(C)COCN1C(=O)N1CC(S(=O)(=O)N2CCC(c3c[nH]c4ncccc34)CC2)C1` [Compound 256, (4,4-dimethyl-1,3-oxazolidin-3-yl)-[3-[4-(1H-pyrrolo[2,3-b]pyridin-3-yl)piperidin-1-yl]sulfonylaze-tidin-1-yl]methanone], for which, in assay [1], the “Ratio of potency in SMO binding assay” value is listed as 2.7. In addition, the IC50 in assay [2] lay within 10 to 100 nM.
The like results for `COC(=O)[C@H]1C[C@H](S(=O)(=O)N2CCC(c3c[nH]c4ncccc34)CC2)C1` [Compound 274, methyl trans-3-[4-(1H-pyrrolo[2,3-b]pyridin-3-yl)piperidin-1-yl]sulfonylcycl obutane-1-carboxylate] were, in that order, above 10 and 100 to 1000 nM.
For `Cc1noc(C)c1CNC(=O)C1CC(S(=O)(=O)N2CCC(c3c[nH]c4ncccc34)CC2)C1` (stereo not drawn) [Compound 284, N-[(3,5-dimethyl-1,2-oxazol-4-yl)methyl]-3-[4-(1H-pyrrolo [2,3-b]pyridin-3-yl)piperidin-1-yl]sulfonylcycl obutane-1-carboxamide], the “Ratio of potency in SMO binding assay” value in assay [1] came out at 2.3. Further, the IC50 in assay [2] lay within 100 to 1000 nM.
For `Cc1noc(C)c1NC(=O)C1CC(S(=O)(=O)N2CCC(c3c[nH]c4ncccc34)CC2)C1` (stereo not drawn) [Compound 285, N-(3,5-dimethyl-1,2-oxazol-4-yl)-3-[4-(1H-pyrrolo [2,3-b]pyridin-3-yl)piperidin-1-yl]sulfonylcycl obutane-1-carboxamide], the “Ratio of potency in SMO binding assay” value in assay [1] came out at 2.9. In addition, in assay [2], the IC50 is 10 to 100 nM.
In the case of `O=C(NCCS(=O)(=O)N1CCC(c2c[nH]c3ncccc23)CC1)OC1CCCCC1` [Compound 292, cyclohexyl N-[2-[4-(1H-pyrrolo-[2,3-b]pyridin-3-yl)piperidin-1-yl]sulfonylethyl] carbamate], the “Ratio of potency in SMO binding assay” value in assay [1] is 4.3. For the same compound, the IC50 in assay [2] is 100 to 1000 nM.
The matching figures for `Cc1noc(C)c1NC(=O)N1CC(S(=O)(=O)N2CCC(c3nc4ccccc4s3)CC2)C1` [Compound 294, 3-[4-(1,3-benzothiazol-2-yl)piperidin-1-yl]sulfonyl-N-(3,5-dimethyl-1,2-oxazol-4-yl)azetidine-1-carboxamide]: 5.0 and 100 to 1000 nM.
The like results for `O=C([C@H]1C[C@@H](S(=O)(=O)N2CCC(c3c[nH]c4ncccc34)CC2)C1)N1CCOCC1` [Compound 296, cis-morpholin-4-yl-[3-[4-(1H-pyrrolo[2,3-b]pyridin-3-yl)piperidin-1-yl]sulfonylcyclobutyl] methanone] were, in that order, 3.8 and 100 to 1000 nM.
As to `O=C(NC1(C(F)(F)F)CC1)[C@H]1C[C@H](S(=O)(=O)N2CCC(c3c[nH]c4ncccc34)CC2)C1` [Compound 298, trans-3-[4-(1H-pyrrolo[2,3-b]pyridin-3-yl)piperidin-1-yl]sulfonyl-N-[1-(trifluoromethyl)cyclopropyl] cyclobutane-1-carboxamide], the “Ratio of potency in SMO binding assay” value in assay [1] is listed as 4.9. Also, the IC50 in assay [2] lay within 100 to 1000 nM.
Consider `O=C([C@H]1C[C@H](S(=O)(=O)N2CCC(c3c[nH]c4ncccc34)CC2)C1)N1CCOCC1` [Compound 308, trans-morpholin-4-yl-[3-[4-(1H-pyrrolo [2,3-b]pyridin-3-yl)piperidin-1-yl]sulfonyl-cyclobutyl] methanone], for which the “Ratio of potency in SMO binding assay” value in assay [1] was 4.8. The half-maximal inhibitory concentration (IC50) in assay [2] was 100 to 1000 nM.
On to `O=S(=O)(C1CN(CC2(C(F)(F)F)CC2)C1)N1CCC(c2c[nH]c3ncccc23)CC1` [Compound 313, 3-[1-[1-[[1-(trifluoromethyl)cyclopropyl]methyl]azetidin-3-yl]sulfonylpiperidin-4-yl]-1H-pyrrolo[2,3-b]pyridine], for which the “Ratio of potency in SMO binding assay” value in assay [1] was 2.7. The IC50 in assay [2] was in the range of 100 to 1000 nM.
With `CC(C)(C)C(=O)CN1CC(S(=O)(=O)N2CCC(c3c[nH]c4ncccc34)CC2)C1` [Compound 314, 3,3-dimethyl-1-[3-[4-(1H-pyrrolo[2,3-b]pyridin-3-yl)piperidin-1-yl]sulfonylaze-tidin-1-yl]butan-2-one], in assay [1], the “Ratio of potency in SMO binding assay” value is on record as 6.7. Moreover, in assay [2], the 50% inhibitory concentration (IC50) was in the range of 10 to 100 nM.
With `CC(C)(C)NC(=O)N1CC(S(=O)(=O)N2CCC(c3ccc(Cl)cc3)CC2)C1` [Compound 319, N-tert-butyl-3-[4-(4-chlorophenyl)piperidin-1-yl]sulfonylaze-tidine-1-carboxamide], the “Ratio of potency in SMO binding assay” value in assay [1] amounted to 2.9. Also, the IC50 in assay [2] lay within 10 to 100 nM.
The matching figures for `C[C@@H](NC(=O)N1CC(S(=O)(=O)N2CCC(c3coc4cccnc34)CC2)C1)C(F)(F)F` [Compound 328, 3-(4-furo[3,2-b]pyridin-3-ylpiperidin-1-yl)sulfonyl-N-[(2R)-1,1,1-trifluoropropan-2-yl]azetidine-1-carboxamide]: 3.2 and 10 to 100 nM.
Turning to `O=C(CC(O)(C(F)(F)F)C(F)(F)F)N1CC(S(=O)(=O)N2CCC(c3c[nH]c4ncccc34)CC2)C1` [Compound 333, 4,4,4-trifluoro-3-hydroxy-1-[3-[[4-(1H-pyrrolo[2,3-b]pyridin-3-yl)-1-piperidyl]sulfonyl]azetidin-1-yl]-3-(trifluoromethyl)butan-1-one], in assay [1], the “Ratio of potency in SMO binding assay” value was determined as 2.5. In addition, the IC50 in assay [2] was in the range of 10 to 100 nM.
As to `O=C(CC(O)(C(F)(F)F)C(F)(F)F)N1CC(S(=O)(=O)N2CCC(c3coc4cccnc34)CC2)C1` [Compound 334, 4,4,4-trifluoro-1-[3-(4-furo[3,2-b]pyridin-3-ylpiperidin-1-yl)sulfonylaze-tidin-1-yl]-3-hydroxy-3-(trifluoromethyl) butan-1-one], the “Ratio of potency in SMO binding assay” value in assay [1] turned out to be 2.6. For the same compound, the IC50 in assay [2] was 10 to 100 nM.

The values are drawn from patent publication US10961238B2, “Modulators of hedgehog (Hh) signaling pathway” (E-THERAPEUTICS PLC, priority 2016, dated 2021).
